# Laboratory results published in PMC11544713, “The Application of Untargeted Metabolomic Approaches for the Search of Common Bioavailable Metabolites in Human Plasma Samples from Lippia citriodora and Olea europaea Extracts” (Journal of Agricultural and Food Chemistry, 2024).
# Assay: Acute intervention: nutrikinetics of plasma metabolites after ingestion of O. europaea extract (untargeted HPLC-ESI-QTOF-MS)
# Protocol: A total of 25 healthy individuals participated, with an average age of 27 ± 9 years and a mean body mass index (BMI) of 23 ± 3 kg/m^2. None of the participants were taking any medications or nutritional supplements nor did they have any chronic diseases or gastrointestinal issues. The sample size was established based on findings from previous bioavailability research.[14] All participants provided informed consent before participating in the study.
# The intervention study was carried out at Miguel Hernández University. Following an overnight fast, the volunteers were categorized into the subsequent groups: a subgroup to evaluate the LC leaf extract (n = 8), another for the OE leaf extract (n = 8), and the placebo subgroup (n = 9). This was a double-blind study, in which sample collection and treatment were carried out uniformly across all three subgroups.
# Water was provided ad libitum. Prior to the ingestion of the capsule, a nurse inserted a cannula into the ulnar vein of each volunteer’s nondominant arm, and blood samples were drawn into EDTA-coated tubes at baseline (t = 0). Blood samples were then collected at 0.5, 1, 2, 4, 6, 8, and 10 h after the consumption of the 500 mg capsule. Plasma was separated through centrifugation (10 min at 3000 rpm and 4 °C) and stored at −80 °C until further analysis.
# Plasma samples were initially treated using a mixture of methanol and ethanol (50:50; v:v) to remove proteins, following previously reported protocols.[19] During the sample treatment, pooled quality controls (pooled-QC) were prepared by combining equal aliquots from each sample. These QC samples were processed by using the same protocols as the experimental biological samples.
# A reversed-phase analytical C18 column (Agilent Zorbax Eclipse Plus, 1.8 μm, 4.6 × 150 mm^2) with a protective cartridge with the same packing was used. MS data were acquired in negative ionization mode, operating in full scan across a mass-to-charge ratio (m/z) range of 50–1700. The analytical method used was adapted from that described by Villegas-Aguilar et al.[19]
# Metabolite nutrikinetics were studied using PKSolver, an add-in program for pharmacokinetic data analysis in Microsoft Excel. The time to reach the maximum concentration (observed Tmax) was calculated for each significant metabolite. As an untargeted metabolomic approach was used to detect the circulating metabolites, these were not quantified. Therefore, the maximum concentration (Cmax) and area under the curve (AUC) parameters were calculated in a relative way by using the deconvoluted chromatographic areas. […] Statistical differences were determined by unpaired t tests. All p values less than 0.05 were considered statistically significant.
# [1] = 0.5 h after O. europaea extract
# [2] = human plasma, 500 mg capsule of O. europaea (OE) extract, oral, mean ± SD
Molecule,"mean chromatographic area in plasma, T0.5 [1]","mean chromatographic area in plasma, T1 (1 h after O. europaea extract)","mean chromatographic area in plasma, T2 (2 h after O. europaea extract)","mean chromatographic area in plasma, T4 (4 h after O. europaea extract)","mean chromatographic area in plasma, T6 (6 h after O. europaea extract)","mean chromatographic area in plasma, T8 (8 h after O. europaea extract)","mean chromatographic area in plasma, T10 (10 h after O. europaea extract)",Cmax: relative maximum plasma level [2],observed Tmax: time required to reach Cmax [2],"Cmax: relative maximum plasma level (human, in vivo, po, 500 mg)","observed Tmax: time required to reach Cmax (human, in vivo, po, 500 mg)","mean chromatographic area in plasma, T0.5 (in vivo)","mean chromatographic area in plasma, T1 (in vivo)","mean chromatographic area in plasma, T2 (in vivo)","mean chromatographic area in plasma, T4 (in vivo)","mean chromatographic area in plasma, T6 (in vivo)","mean chromatographic area in plasma, T8 (in vivo)","mean chromatographic area in plasma, T10 (in vivo)"
hydroxytyrosol sulfate [hydroxytyrosol sulfate isomer 1],280,323,178,328,118,202,45,593 ± 382 relative chromatographic area,3 ± 3 h,,,,,,,,,
COc1cc(CCC(=O)O)ccc1OS(=O)(=O)O [dihydroferulic acid 4-sulfate],,,,,,,,,,190 ± 20 relative chromatographic area,1.3 ± 0.4 h,,,,,,,
COc1cc(C(=O)O)cc(OC)c1OC [eudesmic acid],34,120,28,0,0,0,0,120 ± 27 relative chromatographic area,1 ± 0 h,,,,,,,,,
hydroxytyrosol glucuronide [hydroxytyrosol glucuronide isomer 1],724,955,463,158,61,28,0,1002 ± 411 relative chromatographic area,0.9 ± 0.2 h,,,,,,,,,
O=C(/C=C/C1=CC(=O)C(=O)C=C1)OC1CC(O)(C(=O)O)CC(O)C1O (centres unmarked) [chlorogenoquinone],181,315,154,12,11,0,0,324 ± 7 relative chromatographic area,0.9 ± 0.2 h,,,,,,,,,
"OC[C@H]1O[C@@H](OCc2ccoc2)[C@H](O)[C@@H](O)[C@@H]1O (single isomer, unassigned; isomer 1) [3-furanmethanol glucoside isomer 1, 3-furanmethanol glucoside]",27,200,184,107,17,0,0,236 ± 104 relative chromatographic area,1.6 ± 0.5 h,,,,,,,,,
desoxy elenolic acid,,,,,,,,,,124 ± 24 relative chromatographic area,1.1 ± 0.4 h,56,123,35,0,0,0,0
COC(=O)C1=CO[C@H](O)/C(=C/CO)[C@@H]1CC(=O)OCCc1ccc(O)c(O)c1 [10-hydroxyoleuropein aglycone],165,142,15,0,0,0,0,194 ± 76 relative chromatographic area,0.7 ± 0.2 h,,,,,,,,,
